The text below walks through data of ChEMBL document CHEMBL4813953, “Kinetics-Driven Drug Design Strategy for Next-Generation Acetylcholinesterase Inhibitors to Clinical Candidate” (J Med Chem, 2021).

Activity calls are given as the source filed them. The rule behind the calls is not given here. Where only a bound is given, the exact number is not on record here.

One data set has as its target Acetylcholinesterase (Homo sapiens, UniProt P22303). Nature of the data set: Binding affinity to CM5 sensor chip immobilized recombinant human AChE assessed as dissociation constant at 298.15 K by surface plasmon resonance assay. In general terms: Surface plasmon resonance follows binding to a sensor surface in real time, without labels.
Data set [1] in a line: Tmax in Beagle dog at 0.25 mg/kg, po. The settings on record: in vivo. Type of data set: ADME, organism-based, Canis lupus familiaris.
A short description of data set [2]: Tmax in human plasma at 1 mg, po. The class given is ADME, cell-free.
The nature of data set [3]: Cmax in Sprague-Dawley rat at 0.5 mg/kg, po. Also on record: route oral, dose 0.5 mg/kg. The settings on record: in vivo. Type of data set: ADME, organism-based.
A short description of data set [4]: Cmax in human plasma at 4 mg, po. Type of data set: ADME, cell-free. Further details: route oral, dose 4 mg.
Data set [5] in a line: AUC (0 to infinity) in Sprague-Dawley rat at 0.5 mg/kg, po. Type of data set: ADME, organism-based. Further details: time infinity, route oral, dose 0.5 mg/kg. The settings on record: in vivo.
The nature of data set [6]: AUC (0 to infinity) in Beagle dog at 0.25 mg/kg, po. Type of data set: ADME, organism-based, Canis lupus familiaris. Further details: route oral, time infinity, dose 0.25 mg/kg. The settings on record: in vivo.
Data set [7] can be described thus: AUC (0 to infinity) in Beagle dog at 0.25 mg/kg, iv. Type of data set: ADME, organism-based, Canis lupus familiaris. Further details: route intravenous, time infinity, dose 0.25 mg/kg. Particulars: in vivo.
Data set [8] can be described thus: Volume of distribution at steady state in Beagle dog at 0.5 mg/kg, po or iv. The class given is ADME, organism-based, Canis lupus familiaris. Particulars: in vivo, read-out: Vdss.
Data set [9] in a line: AUC(0 to t) in Sprague-Dawley rat brain at 10 mg/kg, po. The class given is ADME, organism-based. Further details: dose 10 mg/kg.
Data set [10] is described as follows: Cmax in Sprague-Dawley rat plasma at 10 mg/kg, po. The class given is ADME, organism-based. Further details: route oral, dose 10 mg/kg.
Data set [11] is described as follows: Protein binding in human plasma. Particulars: read-out: PPB (converted). The class given is ADME, cell-free.
Data set [12] is described as follows: Efflux ratio of apparent permeability across basolateral to apical side over apical to basolateral side in human Caco-2 cells. Type of data set: ADME, cell-based.
The test system of data set [13] is Mus musculus. Nature of the data set: Cognitive enhancing effect in mouse model of scopolamine-induced memory impairment assessed as reduction in escape latency time at 0.5 to 2 mg/kg, IG QD for 3 days by channel water maze test. Type of data set: functional, organism-based. The settings on record: dose 0.5-2 mg/kg, time 3.0 day.
The subject of data set [14] is Mus musculus. Nature of the data set: Improvement in learning and spatial memory in APP/PS1 double mutant-transgenic mouse model assessed as increase in time spent in target quadrant at 0.5 to 1 mg/kg, IG QD by Morris water maze test. Type of data set: functional, organism-based. The settings on record: dose 0.5-1 mg/kg.
A short description of data set [15]: Selectivity ratio of IC50 for human ERG to IC50 for rat cortex homogenate acetylcholinesterase.
Data set [16] in a line: Cardiotoxicity in Beagle dog assessed as effect on […] at 0.1 to 1 mg/kg. Type of data set: toxicity, organism-based, Canis lupus familiaris. The settings on record: in vivo, dose 0.1-1 mg/kg.
Another data set deals with Cytochrome P450 2D6 (Homo sapiens, UniProt P10635). Nature of the data set: Inhibition of CYP2D6 in human hepatocytes. Type of data set: ADME, cell-based, Hepatocyte.
Chain of Cytochrome P450 2D6 (P10635 whole entry): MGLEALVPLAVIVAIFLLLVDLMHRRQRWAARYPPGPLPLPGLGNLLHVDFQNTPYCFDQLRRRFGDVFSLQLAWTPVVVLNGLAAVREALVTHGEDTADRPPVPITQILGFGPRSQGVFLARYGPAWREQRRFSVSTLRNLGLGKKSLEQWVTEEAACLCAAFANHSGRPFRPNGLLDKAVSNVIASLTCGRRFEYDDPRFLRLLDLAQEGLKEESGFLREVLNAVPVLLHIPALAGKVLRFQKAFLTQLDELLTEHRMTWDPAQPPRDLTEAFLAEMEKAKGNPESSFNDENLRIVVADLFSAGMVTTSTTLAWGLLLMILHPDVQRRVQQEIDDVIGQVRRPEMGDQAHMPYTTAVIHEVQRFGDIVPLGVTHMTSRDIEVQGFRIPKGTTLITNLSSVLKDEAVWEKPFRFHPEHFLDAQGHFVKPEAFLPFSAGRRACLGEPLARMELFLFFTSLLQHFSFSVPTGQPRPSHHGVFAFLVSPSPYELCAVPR
For the next data set, the target named is Cytochrome P450 3A4 (Homo sapiens, UniProt P08684). Kind of data set: Inhibition of CYP3A4 in human hepatocytes. Type of data set: ADME, cell-based, Hepatocyte.
Chain of Cytochrome P450 3A4 (P08684 whole entry): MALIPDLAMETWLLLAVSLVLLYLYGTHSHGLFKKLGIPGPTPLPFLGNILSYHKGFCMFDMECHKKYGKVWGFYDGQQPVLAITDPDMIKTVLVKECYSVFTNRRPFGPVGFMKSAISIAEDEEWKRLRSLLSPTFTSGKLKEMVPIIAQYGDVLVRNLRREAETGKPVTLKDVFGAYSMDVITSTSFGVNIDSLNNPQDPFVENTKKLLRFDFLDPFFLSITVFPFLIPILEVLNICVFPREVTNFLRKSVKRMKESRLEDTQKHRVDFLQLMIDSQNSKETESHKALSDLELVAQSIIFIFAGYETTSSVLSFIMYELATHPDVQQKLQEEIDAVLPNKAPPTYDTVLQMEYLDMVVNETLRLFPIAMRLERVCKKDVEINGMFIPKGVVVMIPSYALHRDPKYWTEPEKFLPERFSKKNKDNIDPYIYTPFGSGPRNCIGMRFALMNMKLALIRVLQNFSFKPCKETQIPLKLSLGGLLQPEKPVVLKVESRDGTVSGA
Data set [17] in a line: Toxicity in Beagle dog assessed as animal death at 1 to 20 mg/kg, po. Type of data set: organism-based, Canis lupus familiaris. Particulars: in vivo, dose 1-20 mg/kg.

Chain of Acetylcholinesterase (P22303 whole entry): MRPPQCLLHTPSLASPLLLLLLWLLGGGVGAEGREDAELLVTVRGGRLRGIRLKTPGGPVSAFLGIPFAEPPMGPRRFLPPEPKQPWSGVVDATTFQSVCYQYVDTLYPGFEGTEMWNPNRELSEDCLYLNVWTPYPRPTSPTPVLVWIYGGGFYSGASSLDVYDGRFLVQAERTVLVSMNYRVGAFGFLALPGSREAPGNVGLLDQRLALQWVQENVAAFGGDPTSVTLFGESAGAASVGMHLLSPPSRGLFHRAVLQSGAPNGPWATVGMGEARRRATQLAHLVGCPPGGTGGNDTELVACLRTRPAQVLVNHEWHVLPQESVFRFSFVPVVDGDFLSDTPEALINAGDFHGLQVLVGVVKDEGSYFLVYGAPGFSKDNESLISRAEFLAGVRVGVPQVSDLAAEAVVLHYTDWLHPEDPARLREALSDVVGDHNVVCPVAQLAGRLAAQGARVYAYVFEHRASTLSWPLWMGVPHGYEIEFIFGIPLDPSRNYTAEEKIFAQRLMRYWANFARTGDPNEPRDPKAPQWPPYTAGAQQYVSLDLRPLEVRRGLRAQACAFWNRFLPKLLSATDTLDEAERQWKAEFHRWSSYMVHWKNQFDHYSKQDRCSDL

`COc1cc2c(cc1OC)C(=O)C(CC1(F)CCN(Cc3ccccc3F)CC1)C2` (stereo not given): the dissociation constant (Kd) (commonly the equilibrium constant for the complex coming apart) at Acetylcholinesterase stood at 0.0035 µM. The results for the time of peak concentration (Tmax) in data set [1] and in data set [2] were 0.92 h and 1.5 h, respectively. The Cmax (usually the maximum level reached in the sampled fluid or tissue) in [3] was found to be 35.7 ng/mL; in [4], 8.61 ng/mL; in data set [10], 215 ng/mL. Further, the results for the AUC(0-inf) in data set [5], in data set [6] and in data set [7] were 179 ng·h/mL, 157 ng·h/mL and 256 ng·h/mL, respectively. In [8], the Vd came to 23.2 L/kg. In addition, the AUC(0-t) (in general, exposure summed from dosing to a finite time, without extrapolation to infinity) in [9] amounted to 5840 ng·h/mL. In data set [11], the fraction unbound was 0.022. Besides, in [12], the efflux ratio (usually a quotient of directional permeabilities that is used to spot active efflux) came to 0.67. Further, the result with Mus musculus [13] and in the data set with Mus musculus [14] was Active. The Ratio IC50 in data set [15] was determined as 10700. In addition, the Activity result in [16] and in data set [17] was “Non-Toxic” in each case. The IC50 against Cytochrome P450 2D6 and at Cytochrome P450 3A4 was more than 30 µM in each case.
